Measurements from PubChem BioAssay AID248 (DTP/NCI, 2004).
Toxic doses and inconclusive results are not listed. Cut-off read from the data, not from the text of the source: active = T/C of 150% or more; inactive = T/C below 125%.

System: L1210 leukemia ip in BDF1 mice, survival T/C
Experiment: NCI In Vivo Anticancer Drug Screen. Data for tumor model L1210 Leukemia (intraperitoneal) in B6D2F1 (BDF1) mice
Conditions: endpoint: mean survival time, higher = longer survival
Procedure, shortened: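 Ratio derived from survival: compound-dosed mice over vehicle-dosed mice, all bearing a transplantable tumor.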

[1] = dose: 100.0 mg/kg/injection, schedule: Q01DX009 (ip), vehicle: saline with Tween-80
[2] = dose: 100.0 mg/kg/injection, schedule: Q04DX003 (ip), vehicle: saline with Tween-80
[3] = dose: 200.0 mg/kg/injection, schedule: Q01DX009 (ip), vehicle: saline with Tween-80
[4] = dose: 200.0 mg/kg/injection, schedule: Q04DX003 (ip), vehicle: saline with Tween-80
[5] = dose: 400.0 mg/kg/injection, schedule: Q01DX009 (ip), vehicle: saline with Tween-80
[6] = dose: 400.0 mg/kg/injection, schedule: Q04DX003 (ip), vehicle: saline with Tween-80
[7] = dose: 100.0 mg/kg/injection, schedule: Q01DX009 (ip), vehicle: Klucel (hydroxypropylcellulose) (HPC)
[8] = dose: 200.0 mg/kg/injection, schedule: Q01DX009 (ip), vehicle: Klucel (hydroxypropylcellulose) (HPC)
[9] = dose: 100.0 mg/kg/injection, schedule: Q04DX003 (ip), vehicle: saline
[10] = dose: 200.0 mg/kg/injection, schedule: Q04DX003 (ip), vehicle: saline
[11] = dose: 400.0 mg/kg/injection, schedule: Q01DX009 (ip), vehicle: Klucel (hydroxypropylcellulose) (HPC)
[12] = dose: 400.0 mg/kg/injection, schedule: Q04DX003 (ip), vehicle: saline

Measured: T/C

Cc1ccc(N)c(F)c1
inactive: dose: 100.0 mg/kg/injection, schedule: Q04DX002 (sc), vehicle: olive oil, sesame oil, peanut oil 93 % of control | dose: 200.0 mg/kg/injection, schedule: Q04DX002 (sc), vehicle: olive oil, sesame oil, peanut oil 98 % of control | dose: 400.0 mg/kg/injection, schedule: Q04DX002 (sc), vehicle: olive oil, sesame oil, peanut oil 104 % of control

CCC(Cl)(c1ccccc1)C(O)C(=O)OC(C)C (centres undefined)
inactive: dose: 100.0 mg/kg/injection, schedule: Q04DX002 (ip), vehicle: Klucel (hydroxypropylcellulose) (HPC) 106 % of control | dose: 200.0 mg/kg/injection, schedule: Q04DX002 (ip), vehicle: Klucel (hydroxypropylcellulose) (HPC) 103 % of control | dose: 400.0 mg/kg/injection, schedule: Q04DX002 (ip), vehicle: Klucel (hydroxypropylcellulose) (HPC) 106 % of control

O=C(O)Cn1c(C(F)(F)F)nc2nc(Cl)c(Cl)nc21
inactive: [1] 89 % of control | [2] 94 % of control | [3] 100 % of control | [4] 94 % of control | [5] 92 % of control | [6] 97 % of control

C(=NCC(CCN1CCCC1)(CCN1CCCC1)c1cccc2ccccc12)C(CCN1CCCC1)(CCN1CCCC1)c1cccc2ccccc12
inactive: dose: 5.0 mg/kg/injection, schedule: Q01DX009 (ip), vehicle: saline with Tween-80 106 % of control | dose: 6.25 mg/kg/injection, schedule: Q04DX002 (ip), vehicle: saline 92 % of control | dose: 10.0 mg/kg/injection, schedule: Q01DX009 (ip), vehicle: saline with Tween-80 106 % of control | dose: 12.5 mg/kg/injection, schedule: Q04DX002 (ip), vehicle: saline 101 % of control

COC(=O)c1ccc(N(C)CC/C(CN)=N/NC(N)=O)cc1
inactive: dose: 100.0 mg/kg/injection, schedule: Q01DX001 (ip), vehicle: carboxymethylcellulose (CMC) 96 % of control | dose: 200.0 mg/kg/injection, schedule: Q01DX001 (ip), vehicle: carboxymethylcellulose (CMC) 96 % of control | dose: 400.0 mg/kg/injection, schedule: Q01DX001 (ip), vehicle: carboxymethylcellulose (CMC) 102 % of control

COc1cccc2c1C(=O)c1c(O)c3c(c(O)c1C2=O)C[C@@](O)(C(=O)COC(C)=O)C[C@@H]3OC1CC(N)C(O)C(C)O1 (some centres undefined)
inactive: dose: 0.45 mg/kg/injection, schedule: Q04DX003 (ip), vehicle: saline 120 % of control | dose: 1.6 mg/kg/injection, schedule: Q04DX003 (ip), vehicle: saline 111 % of control | dose: 2.4 mg/kg/injection, schedule: Q04DX003 (ip), vehicle: saline 104 % of control
active: dose: 0.7 mg/kg/injection, schedule: Q04DX003 (ip), vehicle: saline 167 % of control

COc1ccc(OC)c(NC(=O)Nc2cc([N+](=O)[O-])ccc2OC)c1
inactive: dose: 50.0 mg/kg/injection, schedule: Q01DX009 (ip), vehicle: Klucel (hydroxypropylcellulose) (HPC) 101 % of control | [7] 97 % of control | [8] 111 % of control

O=C(c1ccccc1)C(O)c1ccccc1 (centres undefined)
inactive: [1] 89 % of control | [3] 94 % of control | [5] 100 % of control

CC(C)CN1CC(Br)C(=O)NC1=O (centres undefined)
inactive: dose: 25.0 mg/kg/injection, schedule: Q01DX Z (ip), vehicle: methylcellulose (MC) 92 % of control | dose: 50.0 mg/kg/injection, schedule: Q01DX Z (ip), vehicle: methylcellulose (MC) 88 % of control

O=C(Nc1cc(C(F)(F)F)ccc1Cl)c1ccccc1
inactive: [7] 90 % of control | [9] 117 % of control | [8] 108 % of control | [10] 101 % of control | [11] 111 % of control | [12] 103 % of control

Cc1nc2ccc(O)cc2cc1CO
inactive: dose: 50.0 mg/kg/injection, schedule: Q01DX009 (ip), vehicle: saline 100 % of control | dose: 100.0 mg/kg/injection, schedule: Q01DX009 (ip), vehicle: saline 87 % of control | [9] 104 % of control | dose: 200.0 mg/kg/injection, schedule: Q01DX009 (ip), vehicle: saline 89 % of control | [10] 103 % of control | dose: 400.0 mg/kg/injection, schedule: Q01DX009 (ip), vehicle: saline 113 % of control | [12] 109 % of control

CCN(CC)CCn1ncc2c1C1(C)CCC2C1(C)C (centres undefined)
inactive: dose: 25.0 mg/kg/injection, schedule: Q01DX009 (ip), vehicle: saline + alcohol 100 % of control | dose: 50.0 mg/kg/injection, schedule: Q01DX009 (ip), vehicle: saline + alcohol 104 % of control | dose: 100.0 mg/kg/injection, schedule: Q01DX009 (ip), vehicle: saline + alcohol 102 % of control | [9] 101 % of control | [10] 102 % of control

CCOC(=O)C(CCN(C)Cc1ccccc1)C(=O)OCC
inactive: [7] 97 % of control | [8] 100 % of control | [11] 106 % of control

C=CCN(CC=C)P(=O)(N1CC1)N1CC1C (centres undefined)
inactive: dose: 0.37 mg/kg/injection, schedule: Q01DX015 (ip), vehicle: carboxymethylcellulose (CMC) 117 % of control | dose: 6.0 mg/kg/injection, schedule: Q01DX009 (ip), vehicle: saline 90 % of control
active: dose: 10.0 mg/kg/injection, schedule: Q01DX001 (ip), vehicle: saline 162 % of control

OCCSc1ccc2ccccc2c1
inactive: dose: 100.0 mg/kg/injection, schedule: Q04DX002 (ip), vehicle: saline with Tween-80 94 % of control | dose: 200.0 mg/kg/injection, schedule: Q04DX002 (ip), vehicle: saline with Tween-80 90 % of control | dose: 400.0 mg/kg/injection, schedule: Q04DX002 (ip), vehicle: saline with Tween-80 103 % of control

CC(C)COC(=O)c1cccc2c1-c1ccccc1C2=O
inactive: dose: 100.0 mg/kg/injection, schedule: Q01DX001 (ip), vehicle: other 96 % of control | dose: 200.0 mg/kg/injection, schedule: Q01DX001 (ip), vehicle: other 87 % of control | dose: 400.0 mg/kg/injection, schedule: Q01DX001 (ip), vehicle: other 98 % of control

CN=C(N)N(C)/N=C(C)\C=N\N(C)C(N)=NC
inactive: dose: 15.0 mg/kg/injection, schedule: Q01DX Z (ip), vehicle: carboxymethylcellulose (CMC) 98 % of control | dose: 30.0 mg/kg/injection, schedule: Q01DX Z (ip), vehicle: carboxymethylcellulose (CMC) 96 % of control | dose: 60.0 mg/kg/injection, schedule: Q01DX Z (ip), vehicle: carboxymethylcellulose (CMC) 101 % of control | dose: 120.0 mg/kg/injection, schedule: Q01DX Z (ip), vehicle: carboxymethylcellulose (CMC) 113 % of control | dose: 240.0 mg/kg/injection, schedule: Q01DX Z (oral), vehicle: carboxymethylcellulose (CMC) 104 % of control | dose: 480.0 mg/kg/injection, schedule: Q01DX Z (oral), vehicle: carboxymethylcellulose (CMC) 104 % of control

C=CC(C)C/C(CC)=N\NC(N)=O (centres undefined)
inactive: dose: 75.0 mg/kg/injection, schedule: Q01DX001 (ip), vehicle: other 98 % of control | dose: 150.0 mg/kg/injection, schedule: Q01DX001 (ip), vehicle: other 103 % of control

COc1cc(NC(=O)Nc2cccc(C(C)=O)c2)c(OC)cc1Cl
inactive: [7] 116 % of control | [8] 110 % of control | [11] 110 % of control

CCCCCCCCc1ccc(OC(C)OCCOCCOCC)cc1 (centres undefined)
inactive: dose: 100.0 mg/kg/injection, schedule: Q04DX002 (ip), vehicle: saline 88 % of control | dose: 200.0 mg/kg/injection, schedule: Q04DX002 (ip), vehicle: saline 88 % of control | dose: 400.0 mg/kg/injection, schedule: Q04DX002 (ip), vehicle: saline 98 % of control

O=C1C(=O)c2ccccc2C(O)=C1CC=C1CCCC1
inactive: dose: 100.0 mg/kg/injection, schedule: Q01DX001 (ip), vehicle: water 109 % of control | dose: 100.0 mg/kg/injection, schedule: Q01DX009 (ip), vehicle: water 105 % of control | dose: 200.0 mg/kg/injection, schedule: Q01DX009 (ip), vehicle: water 103 % of control

C[S+](C)c1ccccc1NCc1ccccc1O
inactive: dose: 100.0 mg/kg/injection, schedule: Q01DX001 (ip), vehicle: saline with Tween-80 92 % of control | dose: 200.0 mg/kg/injection, schedule: Q01DX001 (ip), vehicle: saline with Tween-80 93 % of control | dose: 400.0 mg/kg/injection, schedule: Q01DX001 (ip), vehicle: saline with Tween-80 90 % of control

Br/C=C/C1=CCCCC1
inactive: dose: 100.0 mg/kg/injection, schedule: Q01DX009 (ip), vehicle: acetone 98 % of control | [9] 97 % of control | dose: 200.0 mg/kg/injection, schedule: Q01DX009 (ip), vehicle: acetone 90 % of control | [10] 92 % of control | [12] 114 % of control

CC(=O)OCC1OCC(OC(C)=O)C(OC(C)=O)C1OC(C)=O (centres undefined)
inactive: [2] 94 % of control | [4] 98 % of control | [6] 98 % of control
